Test results published in ChEMBL document CHEMBL3813687, “A combined ligand- and structure-based approach for the identification of rilmenidine-derived compounds which synergize the antitumor effects of doxorubicin” (Bioorg Med Chem, 2016).
The source made the active and inactive calls. The calls are words filed in the database; no cut-off is given here.

What was measured:
[1] = molecular target: Tyrosine-protein kinase ABL1 (Homo sapiens) (UniProt P00519); experiment: Inhibition of recombinant human N-terminal His-tagged ABL expressed in baculovirus infected sf9 cells using abtide as substrate assessed as residual activity at 100 uM in presence of NP40 by [gamma32P]ATP filter binding assay relative to control
K562 [2] = experiment: Antiproliferative activity against human K562 cells assessed as inhibition of cell survival after 48 hrs by MTT assay; assay type: functional, cell-based; conditions: K562, 48 h
K562 [3] = experiment: Potentiation of 0.7 uM doxorubicin-induced cytotoxicity in human K562 cells assessed as combination index at 50 uM after 48 hrs by MTT assay relative to control; assay type: functional
K562 [4] = experiment: Potentiation of 0.36 uM doxorubicin-induced cytotoxicity in human K562 cells assessed as combination index at 25 uM after 48 hrs by MTT assay relative to control; assay type: functional
K562 [5] = experiment: Potentiation of doxorubicin-mediated cell cycle arrest in human K562 cells assessed as decrease in G2/M cell population after 48 hrs by propidium iodide staining based flow cytometry; assay type: functional
K562 [6] = experiment: Potentiation of 1.4 uM doxorubicin-induced cytotoxicity in human K562 cells assessed as inhibition of cell survival at 100 uM after 48 hrs by MTT assay relative to control; assay type: functional
K562 [7] = experiment: Potentiation of 0.7 uM doxorubicin-induced cytotoxicity in human K562 cells assessed as inhibition of cell survival at 50 uM after 48 hrs by MTT assay relative to control; assay type: functional
K562 [8] = experiment: Potentiation of doxorubicin-induced apoptosis in human K562 cells assessed as necrotic cells at 70 uM after 48 hrs by Annexin V-FITC/propidium iodide staining based flow cytometry (reference value: 1%); assay type: functional
K562 [9] = experiment: Potentiation of doxorubicin-mediated cell cycle arrest in human K562 cells assessed as increase in sub-G1 cell population after 48 hrs by propidium iodide staining based flow cytometry; assay type: functional
[10] = molecular target: T1, Alpha-2A adrenergic receptor (Homo sapiens, UniProt P08913); experiment: Intrinsic activity at recombinant human alpha2A adrenoreceptor expressed in CHOK1 cell membrane incubated for 30 mins by [35S]GTPgammaS binding assay relative to adrenaline; assay type: cell membranes; conditions: CHO-K1, human, 0.5 h; read-out: Intrinsic activity
T1 sequence (P08913 whole entry): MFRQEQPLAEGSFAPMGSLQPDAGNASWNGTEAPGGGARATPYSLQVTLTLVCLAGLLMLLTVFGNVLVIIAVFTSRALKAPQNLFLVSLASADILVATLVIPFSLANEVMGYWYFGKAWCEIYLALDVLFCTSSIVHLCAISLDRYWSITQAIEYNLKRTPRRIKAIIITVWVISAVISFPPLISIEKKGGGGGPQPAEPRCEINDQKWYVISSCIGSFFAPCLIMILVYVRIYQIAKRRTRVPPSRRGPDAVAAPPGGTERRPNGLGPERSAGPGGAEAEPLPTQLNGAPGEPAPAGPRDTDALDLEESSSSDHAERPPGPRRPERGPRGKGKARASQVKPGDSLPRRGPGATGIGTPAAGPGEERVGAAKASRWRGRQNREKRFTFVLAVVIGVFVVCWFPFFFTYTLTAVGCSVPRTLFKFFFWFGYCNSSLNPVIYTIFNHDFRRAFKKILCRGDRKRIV

K562 [11] = experiment: Cell cycle arrest in human K562 cells assessed as accumulation at G0/G1 phase at 70 uM after 48 hrs by propidium iodide staining based flow cytometry (reference value: 42%); assay type: functional
[12] = molecular target: Proto-oncogene tyrosine-protein kinase Src (Homo sapiens) (UniProt P12931); experiment: Inhibition of recombinant human N-terminal poly His/GST-tagged SRC expressed in baculovirus infected insect cells using KVEKIGEGTYGVVYK peptide substrate assessed as residual activity at 100 uM in presence of NP40 by [gamma32P]ATP filter binding assay relative to control
K562 [13] = experiment: Potentiation of doxorubicin-induced apoptosis in human K562 cells assessed as late apoptotic cells at 70 uM after 48 hrs by Annexin V-FITC/propidium iodide staining based flow cytometry (reference value: 1%); assay type: functional
K562 [14] = experiment: Potentiation of 0.36 uM doxorubicin-induced cytotoxicity in human K562 cells assessed as inhibition of cell survival at 25 uM after 48 hrs by MTT assay relative to control; assay type: functional
[15] = molecular target: Proto-oncogene tyrosine-protein kinase Src (Homo sapiens) (UniProt P12931); experiment: Inhibition of recombinant human N-terminal poly His/GST-tagged SRC expressed in baculovirus infected insect cells using KVEKIGEGTYGVVYK peptide substrate assessed as residual activity at 100 uM by [gamma32P]ATP filter binding assay relative to control
K562 [16] = experiment: Cell cycle arrest in human K562 cells assessed as accumulation at S phase at 70 uM after 48 hrs by propidium iodide staining based flow cytometry (reference value: 29%); assay type: functional
K562 [17] = experiment: Antiproliferative activity against human K562 cells at 70 uM after 24 hrs by clonogenic assay relative to control; assay type: functional; conditions: K562, 24 h, read-out: GI
K562 [18] = experiment: Induction of apoptosis in human K562 cells assessed as early apoptotic cells at 70 uM after 48 hrs by Annexin V-FITC/propidium iodide staining based flow cytometry (reference value: 5%); assay type: functional
K562 [19] = experiment: Cell cycle arrest in human K562 cells assessed as accumulation at sub-G1 phase at 70 uM after 48 hrs by propidium iodide staining based flow cytometry (reference value: 3%); assay type: functional
K562 [20] = experiment: Induction of apoptosis in human K562 cells assessed as necrotic cells at 70 uM after 48 hrs by Annexin V-FITC/propidium iodide staining based flow cytometry (reference value: 1%); assay type: functional
K562 [21] = experiment: Inhibition of colony formation in human K562 cells after 24 hrs by clonogenic assay; assay type: functional, cell-based
K562 [22] = experiment: Cell cycle arrest in human K562 cells assessed as accumulation at G2/M phase at 70 uM after 48 hrs by propidium iodide staining based flow cytometry (reference value: 26%); assay type: functional
[23] = molecular target: Tyrosine-protein kinase ABL1 (Homo sapiens) (UniProt P00519); experiment: Inhibition of recombinant human N-terminal His-tagged ABL expressed in baculovirus infected sf9 cells using abtide as substrate assessed as residual activity at 100 uM by [gamma32P]ATP filter binding assay relative to control
K562 [24] = experiment: Potentiation of 1 uM doxorubicin-induced cytotoxicity in human K562 cells assessed as inhibition of cell survival at 70 uM after 48 hrs by MTT assay relative to control; assay type: functional
K562 [25] = experiment: Potentiation of 1 uM doxorubicin-induced cytotoxicity in human K562 cells assessed as combination index at 70 uM after 48 hrs by MTT assay relative to control; assay type: functional
K562 [26] = experiment: Potentiation of 1.4 uM doxorubicin-induced cytotoxicity in human K562 cells assessed as combination index at 100 uM after 48 hrs by MTT assay relative to control; assay type: functional
K562 [27] = experiment: Potentiation of doxorubicin-induced apoptosis in human K562 cells assessed as early apoptotic cells at 70 uM after 48 hrs by Annexin V-FITC/propidium iodide staining based flow cytometry (reference value: 5%); assay type: functional
[28] = molecular target: T1, Alpha-2A adrenergic receptor; experiment: Displacement of [3H]RS-79948-197 from recombinant human alpha2A adrenoreceptor expressed in CHOK1 cell membrane by scintillation counting method; assay type: cell membranes, CHO-K1; conditions: read-out: Ki(app)
K562 [29] = experiment: Induction of apoptosis in human K562 cells assessed as late apoptotic cells at 70 uM after 48 hrs by Annexin V-FITC/propidium iodide staining based flow cytometry (reference value: 1%); assay type: functional

Sequence of Tyrosine-protein kinase ABL1 (Homo sapiens) (P00519 whole entry): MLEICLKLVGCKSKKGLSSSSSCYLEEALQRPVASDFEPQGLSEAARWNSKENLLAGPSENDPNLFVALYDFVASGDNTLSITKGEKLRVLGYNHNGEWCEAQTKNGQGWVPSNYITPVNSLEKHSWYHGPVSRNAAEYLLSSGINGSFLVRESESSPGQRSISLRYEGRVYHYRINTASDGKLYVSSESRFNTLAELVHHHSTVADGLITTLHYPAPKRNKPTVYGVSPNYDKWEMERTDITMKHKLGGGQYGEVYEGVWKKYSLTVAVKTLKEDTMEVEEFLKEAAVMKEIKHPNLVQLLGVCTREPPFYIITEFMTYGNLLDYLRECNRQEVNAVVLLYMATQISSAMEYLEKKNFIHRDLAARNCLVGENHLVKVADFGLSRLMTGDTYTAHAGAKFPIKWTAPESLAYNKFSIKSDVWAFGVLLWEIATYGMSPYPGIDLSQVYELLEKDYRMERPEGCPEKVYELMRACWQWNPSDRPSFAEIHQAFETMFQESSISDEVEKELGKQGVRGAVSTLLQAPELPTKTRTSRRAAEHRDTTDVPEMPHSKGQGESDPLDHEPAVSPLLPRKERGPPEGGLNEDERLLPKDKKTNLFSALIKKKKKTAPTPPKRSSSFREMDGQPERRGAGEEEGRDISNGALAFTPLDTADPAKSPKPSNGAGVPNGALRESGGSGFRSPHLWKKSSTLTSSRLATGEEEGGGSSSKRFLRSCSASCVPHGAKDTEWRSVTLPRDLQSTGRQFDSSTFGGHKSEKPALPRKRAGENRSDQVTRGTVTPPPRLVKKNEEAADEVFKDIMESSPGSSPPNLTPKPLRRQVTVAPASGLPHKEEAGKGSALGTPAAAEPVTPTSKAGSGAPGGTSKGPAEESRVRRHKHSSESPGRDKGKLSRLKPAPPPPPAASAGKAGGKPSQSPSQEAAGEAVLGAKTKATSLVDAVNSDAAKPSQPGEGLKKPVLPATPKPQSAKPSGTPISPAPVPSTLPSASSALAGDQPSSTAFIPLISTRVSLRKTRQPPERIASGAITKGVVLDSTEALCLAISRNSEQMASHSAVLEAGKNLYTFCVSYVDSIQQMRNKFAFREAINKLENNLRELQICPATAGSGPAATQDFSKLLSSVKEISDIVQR
Sequence of Proto-oncogene tyrosine-protein kinase Src (Homo sapiens) (P12931 2-536 limits assumed): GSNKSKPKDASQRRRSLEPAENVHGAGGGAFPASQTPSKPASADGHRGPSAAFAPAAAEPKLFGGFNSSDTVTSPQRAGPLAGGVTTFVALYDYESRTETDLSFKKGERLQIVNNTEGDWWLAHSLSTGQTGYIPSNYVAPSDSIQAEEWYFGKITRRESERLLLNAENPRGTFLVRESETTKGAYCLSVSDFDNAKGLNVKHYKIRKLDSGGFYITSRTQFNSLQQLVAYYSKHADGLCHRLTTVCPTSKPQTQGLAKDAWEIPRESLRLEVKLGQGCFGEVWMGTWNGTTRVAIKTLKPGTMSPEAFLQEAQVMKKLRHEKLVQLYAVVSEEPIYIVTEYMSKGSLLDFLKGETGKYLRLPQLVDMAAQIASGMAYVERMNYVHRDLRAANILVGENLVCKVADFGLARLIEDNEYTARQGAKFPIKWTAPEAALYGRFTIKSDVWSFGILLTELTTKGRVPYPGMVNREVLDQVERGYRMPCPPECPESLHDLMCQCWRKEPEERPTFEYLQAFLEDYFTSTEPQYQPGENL

CN1CCCCC1CCn1c2ccccc2c2ccccc21 (centres undefined)
Activity [1]: 100% | IC50 (K562 [2]): 70 µM | Ratio (K562 [3]): 0.511 | Ratio (K562 [4]): 0.877 | Activity (K562 [5]): Active | inhibition (INH) (K562 [6]): 78.21% | inhibition (INH) (K562 [7]): 68.62% | Activity (K562 [8]): 1% | Activity (K562 [9]): Active | Emax [10]: -3% | Activity (K562 [11]): 30% | Activity [12]: 96% | Activity (K562 [13]): 2% | inhibition (INH) (K562 [14]): 45.75% | Activity [15]: 100% | Activity (K562 [16]): 16% | inhibition of growth at 70 µM (K562 [17]): 88% | Activity (K562 [18]): 40% | Activity (K562 [19]): 44% | Activity (K562 [20]): 9% | inhibition (K562 [21]): Dose-dependent effect | Activity (K562 [22]): 10% | Activity [23]: 94% | inhibition (INH) (K562 [24]): 72.21% | Ratio (K562 [25]): 0.617 | Ratio (K562 [26]): 0.688 | Activity (K562 [27]): 64% | Ki [28]: 1.2 µM | Activity (K562 [29]): 13%
